Among the data in ChEMBL document CHEMBL1201862, “PubChem BioAssay data set” (2004) are AC50, IC50 and CC50 values, retold here.

Active and inactive are the calls of the source.

The test system of one experiment is Escherichia coli. Nature of the experiment: microbe, parasite or virus in culture.
For another experiment, the target named is Trypsin (Sus scrofa, UniProt P00761). Nature of the experiment: porcine trypsin inhibitors, dose response, selectivity assay for Rce1 protease inhibitor project, biochemical, quenched peptide fluorescence, cherry-pick (AID 488789).
The next experiment has as its target CAAX prenyl protease 2 (Homo sapiens, UniProt Q9Y256). In words: human Rce1 protease inhibitors, dose response, biochemical, yeast membranes, quenched-peptide fluorescence, cherry-pick (AID 588849).
A short description of experiment [1]: Luminescent dose response cell-based high throughput screening assay for inhibitors of the Janus kinase 2 mutant JAK2V617F. [Related pubchem assays: 1446 (Primary screen.), 1521 (Confirmation assay.), 1486 (Counter screen.)]. The class given is functional.
In experiment [2] the target is T1, Microphthalmia-associated transcription factor (Homo sapiens, UniProt O75030).
T1 sequence (O75030 whole entry): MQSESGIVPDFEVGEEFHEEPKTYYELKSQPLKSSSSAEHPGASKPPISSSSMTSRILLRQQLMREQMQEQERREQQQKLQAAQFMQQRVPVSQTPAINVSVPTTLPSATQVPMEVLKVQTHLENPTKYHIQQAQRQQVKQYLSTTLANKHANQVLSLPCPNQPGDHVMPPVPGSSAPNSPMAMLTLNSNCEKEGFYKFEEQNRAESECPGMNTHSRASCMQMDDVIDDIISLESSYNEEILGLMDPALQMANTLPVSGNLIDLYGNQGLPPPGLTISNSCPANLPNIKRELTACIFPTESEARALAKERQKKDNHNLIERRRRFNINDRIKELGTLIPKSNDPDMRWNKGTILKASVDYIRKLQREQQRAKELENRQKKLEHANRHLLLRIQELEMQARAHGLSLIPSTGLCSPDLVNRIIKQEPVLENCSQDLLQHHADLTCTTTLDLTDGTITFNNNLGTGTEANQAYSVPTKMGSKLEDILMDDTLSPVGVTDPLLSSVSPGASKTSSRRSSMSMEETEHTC
Nature of the experiment: TRPM1 promoter luciferase signal decrease, dose response, MITF inhibitor project, cell-based, SK-MEL-5, cherry-picked, set 3 (AID 493073).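 Further: SK-MEL-5 melanoma cells with luciferase driven by the MITF target TRPM1 promoter.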 The class given is functional.

A further experiment relates to A-375. Nature of the experiment: MITF: Counter assay: A375 proliferation Measured in Cell-Based System Using Plate Reader - 2084-03_Inhibitor_Dose_DryPowder_Activity. [Related pubchem assays (depositor defined):AID488944]. It is filed as functional. As to conditions: Homo sapiens.
A further experiment has as its target Paired box protein Pax-8 (Homo sapiens, UniProt Q06710). In words: inhibitors of PAX8-driven TPO luciferase reporter, dose response, RMG-I cells, cherry-pick (AID 687027).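 Further: luciferase reporter driven by Pax8 target thyroperoxidase promoter measured by SteadyGlo luminescence.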 It is filed as functional, cell-based.
In a further experiment the test system is Vero. In words: Vero cell cytotoxicity, cytotoxicity control for flavivirus capping enzyme inhibitors (AID 588742). The note with it: Chlorocebus sabaeus. The class given is functional.
The target in the next experiment is Beta-arrestin-1 (Homo sapiens, UniProt P49407). In words: inhibitors of arrestin peptide binding to AP2, dose response, biochemical, cherry pick 1, beta2-adaptin appendage, flow cytometry (AID 588783). It is filed as functional.
In another experiment the target is Genome polyprotein (dengue virus type 2, UniProt P29990). In words: Dengue-2 NS5 methyltransferase inhibitors, primary screen, biochemical, confirmation dose response (AID 588689). The class given is functional.
Experiment [3] deals with T2, Polyadenylate-binding protein 1 (Homo sapiens, UniProt P11940). Nature of the experiment: PABP1 MLLE–PAM2 interaction inhibitors, dose response, miRNA deadenylation inhibitor project, biochemical, fluorescence polarization, Cy5-PAM2 peptide, secondary (AID 602260). It is filed as functional. The note with it: read-out: IC50_Mean.
The target of experiment [4] is T2, Polyadenylate-binding protein 1. In words: PABP1 MLLE–PAM2 binding inhibitor potency, dose response, biochemical, fluorescence polarization, FITC-PAM2 peptide (AID 602259). It is filed as functional. As to conditions: read-out: IC50_Mean.
The next experiment addresses T3, Protein skinhead-1 (Caenorhabditis elegans, UniProt P34707).
T3 sequence (P34707 whole entry): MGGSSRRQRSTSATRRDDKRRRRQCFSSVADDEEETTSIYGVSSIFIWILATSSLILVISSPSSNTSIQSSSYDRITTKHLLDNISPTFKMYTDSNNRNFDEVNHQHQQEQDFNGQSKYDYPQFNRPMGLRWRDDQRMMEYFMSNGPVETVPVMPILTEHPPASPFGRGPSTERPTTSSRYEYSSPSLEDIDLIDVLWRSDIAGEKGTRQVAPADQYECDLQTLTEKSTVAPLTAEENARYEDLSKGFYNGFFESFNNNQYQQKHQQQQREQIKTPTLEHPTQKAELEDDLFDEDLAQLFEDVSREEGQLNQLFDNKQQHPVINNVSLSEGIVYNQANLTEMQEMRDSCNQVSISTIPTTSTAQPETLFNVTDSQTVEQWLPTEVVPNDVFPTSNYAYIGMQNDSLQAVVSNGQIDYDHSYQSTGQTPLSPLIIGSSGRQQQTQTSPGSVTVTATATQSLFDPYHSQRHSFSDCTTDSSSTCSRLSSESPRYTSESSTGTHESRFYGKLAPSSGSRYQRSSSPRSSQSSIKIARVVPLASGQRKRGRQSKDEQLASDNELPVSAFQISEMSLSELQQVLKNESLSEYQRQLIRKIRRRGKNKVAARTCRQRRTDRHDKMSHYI
The class given is functional.

Experiment [5] can be described thus: HeLa cell cytotoxicity, dose response, cytotoxicity control for MgcRacGAP inhibitor project (AID 624300). The class given is functional.
For experiment [6], the target named is T4, Rac GTPase-activating protein 1 (Homo sapiens, UniProt Q9H0H5).
T4 sequence (Q9H0H5 whole entry): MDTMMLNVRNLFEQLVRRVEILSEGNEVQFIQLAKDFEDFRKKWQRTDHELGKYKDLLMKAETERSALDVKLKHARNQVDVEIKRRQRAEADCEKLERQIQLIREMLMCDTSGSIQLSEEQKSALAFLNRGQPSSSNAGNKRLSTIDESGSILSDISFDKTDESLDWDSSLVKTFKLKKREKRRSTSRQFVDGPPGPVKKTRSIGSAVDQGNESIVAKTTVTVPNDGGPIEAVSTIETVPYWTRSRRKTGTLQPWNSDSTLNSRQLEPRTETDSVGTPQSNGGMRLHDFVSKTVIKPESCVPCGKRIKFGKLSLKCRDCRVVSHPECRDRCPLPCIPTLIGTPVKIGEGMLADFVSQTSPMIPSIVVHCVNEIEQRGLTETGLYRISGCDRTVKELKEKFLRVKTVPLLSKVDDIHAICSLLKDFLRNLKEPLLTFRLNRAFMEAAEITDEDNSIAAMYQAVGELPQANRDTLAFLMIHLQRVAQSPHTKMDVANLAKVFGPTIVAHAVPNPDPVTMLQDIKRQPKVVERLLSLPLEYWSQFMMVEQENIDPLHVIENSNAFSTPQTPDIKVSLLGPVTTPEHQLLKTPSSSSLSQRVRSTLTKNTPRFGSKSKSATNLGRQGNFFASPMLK
In words: MgcRacGAP GTPase-activating activity inhibitors, confirmation, biochemical, ADP Hunter fluorescence, primary and confirmatory (AID 624330). It is filed as functional.

The target of another experiment is T5, Caspase-6 (Homo sapiens, UniProt P55212).
T5 sequence (P55212 whole entry): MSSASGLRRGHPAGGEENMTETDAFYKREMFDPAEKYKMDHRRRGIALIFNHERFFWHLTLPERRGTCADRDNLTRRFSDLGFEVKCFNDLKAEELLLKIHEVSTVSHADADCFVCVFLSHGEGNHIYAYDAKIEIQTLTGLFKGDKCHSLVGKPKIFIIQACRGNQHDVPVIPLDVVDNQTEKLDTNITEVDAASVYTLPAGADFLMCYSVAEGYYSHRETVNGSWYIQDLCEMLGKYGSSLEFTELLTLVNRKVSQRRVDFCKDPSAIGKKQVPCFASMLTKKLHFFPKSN
In words: human caspase-6 inhibitors, dose response, biochemical, VEID-R110 fluorescence, cherry-pick (AID 720632).

The target of experiment [7] is T6, Histone-lysine N-methyltransferase NSD2 (Homo sapiens, UniProt O96028).
T6 sequence (O96028 whole entry): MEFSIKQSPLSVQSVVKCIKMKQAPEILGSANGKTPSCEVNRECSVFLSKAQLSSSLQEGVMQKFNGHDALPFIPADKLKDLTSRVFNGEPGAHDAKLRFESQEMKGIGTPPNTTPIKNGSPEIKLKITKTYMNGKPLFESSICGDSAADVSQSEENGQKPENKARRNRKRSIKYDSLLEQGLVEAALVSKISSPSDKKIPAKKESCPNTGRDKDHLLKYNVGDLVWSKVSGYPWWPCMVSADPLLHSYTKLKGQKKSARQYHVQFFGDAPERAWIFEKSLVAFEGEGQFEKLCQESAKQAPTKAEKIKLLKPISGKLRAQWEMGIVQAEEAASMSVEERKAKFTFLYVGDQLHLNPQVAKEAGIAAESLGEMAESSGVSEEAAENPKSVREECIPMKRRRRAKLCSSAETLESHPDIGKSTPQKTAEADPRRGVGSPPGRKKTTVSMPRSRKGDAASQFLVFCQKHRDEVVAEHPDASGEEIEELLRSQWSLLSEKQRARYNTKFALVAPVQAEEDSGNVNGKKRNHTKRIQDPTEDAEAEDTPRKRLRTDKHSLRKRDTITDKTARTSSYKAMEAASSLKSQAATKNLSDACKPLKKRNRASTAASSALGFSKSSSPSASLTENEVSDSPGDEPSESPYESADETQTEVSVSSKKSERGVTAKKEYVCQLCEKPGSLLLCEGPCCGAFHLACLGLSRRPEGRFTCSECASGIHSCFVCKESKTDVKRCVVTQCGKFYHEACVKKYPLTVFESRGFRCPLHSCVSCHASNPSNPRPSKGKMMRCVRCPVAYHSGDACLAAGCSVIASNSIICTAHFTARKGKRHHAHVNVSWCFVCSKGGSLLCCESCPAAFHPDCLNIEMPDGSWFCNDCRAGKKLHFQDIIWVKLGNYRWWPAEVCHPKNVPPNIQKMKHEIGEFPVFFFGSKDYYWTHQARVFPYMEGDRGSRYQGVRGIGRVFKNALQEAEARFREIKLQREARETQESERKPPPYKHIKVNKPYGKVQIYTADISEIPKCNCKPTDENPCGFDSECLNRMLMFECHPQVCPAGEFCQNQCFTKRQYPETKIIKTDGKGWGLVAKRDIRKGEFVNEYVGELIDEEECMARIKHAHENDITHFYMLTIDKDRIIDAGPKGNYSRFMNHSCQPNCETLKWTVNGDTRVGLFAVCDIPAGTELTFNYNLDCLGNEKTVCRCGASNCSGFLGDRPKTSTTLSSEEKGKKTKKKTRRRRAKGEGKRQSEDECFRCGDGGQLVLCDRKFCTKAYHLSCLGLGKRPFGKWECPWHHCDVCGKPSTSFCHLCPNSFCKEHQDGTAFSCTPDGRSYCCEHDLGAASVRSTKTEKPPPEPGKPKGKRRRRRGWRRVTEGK
It is filed as biochemical.

The target of experiment [8] is Luciferin 4-monooxygenase (Photuris pensylvanica, UniProt Q27757). Nature of the experiment: firefly luciferase enzyme inhibitors, dose response, counter-screen for HSF-1 reporter inhibitor project, biochemical, Cell Titer Glo, luminescence, cherry-picks (AID 588847).
Experiment [9] can be described thus: LGR2 antagonists, dose response, cell-based, HEK293, CRE-luciferase reporter, cherry pick, set 2 (AID 743343).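 Further: transfected cells were stimulated with diluted bursicon conditioned medium after compound addition.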 It is filed as functional.
Experiment [10] can be described thus: MC4R antagonists, dose response, counter-screen for LGR2 antagonist project, cell-based, plate reader, cherry pick (AID 743444).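 Further: transfected HEK 293 cells stimulated with alpha-MSH peptide; potency of inhibitors of the alpha-MSH evoked signal.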 The class given is functional.
For experiment [11], the target named is Voltage-gated inwardly rectifying potassium channel KCNH2 (Homo sapiens, UniProt Q12809). As to conditions: Potency.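 Further: confirmatory quantitative high-throughput screen measuring inhibition of hERG channel activity.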
Sequence of Voltage-gated inwardly rectifying potassium channel KCNH2 (Q12809 whole entry): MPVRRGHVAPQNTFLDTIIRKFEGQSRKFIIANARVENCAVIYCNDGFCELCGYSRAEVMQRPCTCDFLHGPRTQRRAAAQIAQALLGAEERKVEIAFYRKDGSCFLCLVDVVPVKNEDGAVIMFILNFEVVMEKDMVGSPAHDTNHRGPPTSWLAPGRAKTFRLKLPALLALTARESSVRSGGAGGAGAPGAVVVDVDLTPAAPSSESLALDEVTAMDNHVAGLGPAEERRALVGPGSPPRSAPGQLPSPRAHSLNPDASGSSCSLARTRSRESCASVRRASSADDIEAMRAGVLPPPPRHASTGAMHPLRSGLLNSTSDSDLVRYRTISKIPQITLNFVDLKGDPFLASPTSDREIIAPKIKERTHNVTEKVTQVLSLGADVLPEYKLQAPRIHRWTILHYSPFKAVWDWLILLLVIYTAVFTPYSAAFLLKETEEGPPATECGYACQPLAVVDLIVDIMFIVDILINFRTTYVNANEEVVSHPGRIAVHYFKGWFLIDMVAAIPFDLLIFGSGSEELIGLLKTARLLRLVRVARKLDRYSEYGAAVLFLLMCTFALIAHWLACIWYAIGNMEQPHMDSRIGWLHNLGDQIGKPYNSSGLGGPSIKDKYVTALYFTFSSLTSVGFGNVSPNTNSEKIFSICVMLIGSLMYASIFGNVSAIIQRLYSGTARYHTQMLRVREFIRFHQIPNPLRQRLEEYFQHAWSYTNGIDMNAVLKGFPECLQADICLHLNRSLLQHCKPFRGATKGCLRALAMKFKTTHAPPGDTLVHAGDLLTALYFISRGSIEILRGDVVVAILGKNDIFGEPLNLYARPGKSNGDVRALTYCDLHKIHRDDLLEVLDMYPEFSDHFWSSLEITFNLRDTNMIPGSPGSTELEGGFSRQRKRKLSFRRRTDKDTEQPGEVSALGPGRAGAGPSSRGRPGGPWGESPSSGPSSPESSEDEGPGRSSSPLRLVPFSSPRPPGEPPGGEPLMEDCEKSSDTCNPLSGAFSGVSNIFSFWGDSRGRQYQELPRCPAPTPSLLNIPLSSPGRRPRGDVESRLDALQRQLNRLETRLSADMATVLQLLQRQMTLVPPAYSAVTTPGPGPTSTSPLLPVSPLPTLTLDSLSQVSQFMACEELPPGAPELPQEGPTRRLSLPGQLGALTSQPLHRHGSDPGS

Sequence of Paired box protein Pax-8 (Q06710 whole entry): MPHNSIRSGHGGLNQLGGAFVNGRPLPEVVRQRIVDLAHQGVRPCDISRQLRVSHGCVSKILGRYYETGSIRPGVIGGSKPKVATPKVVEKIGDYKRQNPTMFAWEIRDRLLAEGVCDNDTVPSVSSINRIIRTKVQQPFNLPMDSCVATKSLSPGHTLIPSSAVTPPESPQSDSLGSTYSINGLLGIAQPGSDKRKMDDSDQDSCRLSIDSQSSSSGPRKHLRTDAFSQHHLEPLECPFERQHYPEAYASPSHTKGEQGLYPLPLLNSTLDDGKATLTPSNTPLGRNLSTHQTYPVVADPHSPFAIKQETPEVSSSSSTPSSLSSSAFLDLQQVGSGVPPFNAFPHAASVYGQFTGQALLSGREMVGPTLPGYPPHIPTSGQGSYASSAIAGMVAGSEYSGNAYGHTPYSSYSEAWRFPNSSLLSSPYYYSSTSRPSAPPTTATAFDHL
T2 sequence (P11940 whole entry): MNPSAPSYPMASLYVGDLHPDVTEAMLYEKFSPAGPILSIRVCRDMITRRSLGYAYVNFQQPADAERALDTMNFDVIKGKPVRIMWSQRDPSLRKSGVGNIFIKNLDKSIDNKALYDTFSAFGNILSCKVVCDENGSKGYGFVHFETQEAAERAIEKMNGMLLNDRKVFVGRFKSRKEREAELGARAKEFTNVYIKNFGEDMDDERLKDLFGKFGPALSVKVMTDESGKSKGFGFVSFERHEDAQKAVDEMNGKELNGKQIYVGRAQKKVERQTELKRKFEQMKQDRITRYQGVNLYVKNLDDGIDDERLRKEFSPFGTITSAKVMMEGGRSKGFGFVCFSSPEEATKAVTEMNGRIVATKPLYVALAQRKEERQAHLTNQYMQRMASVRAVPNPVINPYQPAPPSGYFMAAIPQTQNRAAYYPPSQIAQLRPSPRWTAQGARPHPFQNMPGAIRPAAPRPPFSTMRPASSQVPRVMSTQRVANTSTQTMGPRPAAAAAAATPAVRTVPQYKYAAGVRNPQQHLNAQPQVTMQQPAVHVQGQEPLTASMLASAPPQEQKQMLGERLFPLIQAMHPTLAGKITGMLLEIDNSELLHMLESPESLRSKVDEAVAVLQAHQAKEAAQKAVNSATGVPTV
Sequence of Luciferin 4-monooxygenase (Q27757 whole entry): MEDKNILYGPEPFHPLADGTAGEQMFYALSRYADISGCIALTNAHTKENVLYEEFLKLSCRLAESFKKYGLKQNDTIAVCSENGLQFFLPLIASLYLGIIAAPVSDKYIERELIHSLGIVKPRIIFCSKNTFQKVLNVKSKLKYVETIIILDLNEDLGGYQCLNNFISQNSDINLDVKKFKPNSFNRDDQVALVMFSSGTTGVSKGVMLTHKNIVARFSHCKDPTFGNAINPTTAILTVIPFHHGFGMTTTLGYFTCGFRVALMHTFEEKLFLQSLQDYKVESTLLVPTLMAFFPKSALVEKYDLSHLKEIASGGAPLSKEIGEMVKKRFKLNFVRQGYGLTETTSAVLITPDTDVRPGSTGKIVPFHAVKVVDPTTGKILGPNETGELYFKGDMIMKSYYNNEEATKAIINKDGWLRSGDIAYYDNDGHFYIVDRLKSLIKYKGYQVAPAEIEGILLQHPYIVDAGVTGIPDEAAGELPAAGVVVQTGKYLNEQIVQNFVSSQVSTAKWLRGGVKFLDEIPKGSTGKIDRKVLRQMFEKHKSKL
Sequence of Beta-arrestin-1 (P49407 whole entry): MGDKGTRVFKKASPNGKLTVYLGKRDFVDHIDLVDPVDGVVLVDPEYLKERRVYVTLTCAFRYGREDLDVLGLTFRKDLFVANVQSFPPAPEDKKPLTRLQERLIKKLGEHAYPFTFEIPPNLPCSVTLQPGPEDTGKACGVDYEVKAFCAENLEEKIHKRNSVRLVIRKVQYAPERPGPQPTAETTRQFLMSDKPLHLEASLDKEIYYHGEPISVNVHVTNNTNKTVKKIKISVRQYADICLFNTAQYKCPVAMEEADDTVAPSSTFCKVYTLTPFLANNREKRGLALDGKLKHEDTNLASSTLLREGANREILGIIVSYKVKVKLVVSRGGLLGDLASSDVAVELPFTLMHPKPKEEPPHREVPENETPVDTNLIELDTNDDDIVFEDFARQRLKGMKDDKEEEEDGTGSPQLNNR
Sequence of Genome polyprotein (P29990 2492-3391 limits assumed): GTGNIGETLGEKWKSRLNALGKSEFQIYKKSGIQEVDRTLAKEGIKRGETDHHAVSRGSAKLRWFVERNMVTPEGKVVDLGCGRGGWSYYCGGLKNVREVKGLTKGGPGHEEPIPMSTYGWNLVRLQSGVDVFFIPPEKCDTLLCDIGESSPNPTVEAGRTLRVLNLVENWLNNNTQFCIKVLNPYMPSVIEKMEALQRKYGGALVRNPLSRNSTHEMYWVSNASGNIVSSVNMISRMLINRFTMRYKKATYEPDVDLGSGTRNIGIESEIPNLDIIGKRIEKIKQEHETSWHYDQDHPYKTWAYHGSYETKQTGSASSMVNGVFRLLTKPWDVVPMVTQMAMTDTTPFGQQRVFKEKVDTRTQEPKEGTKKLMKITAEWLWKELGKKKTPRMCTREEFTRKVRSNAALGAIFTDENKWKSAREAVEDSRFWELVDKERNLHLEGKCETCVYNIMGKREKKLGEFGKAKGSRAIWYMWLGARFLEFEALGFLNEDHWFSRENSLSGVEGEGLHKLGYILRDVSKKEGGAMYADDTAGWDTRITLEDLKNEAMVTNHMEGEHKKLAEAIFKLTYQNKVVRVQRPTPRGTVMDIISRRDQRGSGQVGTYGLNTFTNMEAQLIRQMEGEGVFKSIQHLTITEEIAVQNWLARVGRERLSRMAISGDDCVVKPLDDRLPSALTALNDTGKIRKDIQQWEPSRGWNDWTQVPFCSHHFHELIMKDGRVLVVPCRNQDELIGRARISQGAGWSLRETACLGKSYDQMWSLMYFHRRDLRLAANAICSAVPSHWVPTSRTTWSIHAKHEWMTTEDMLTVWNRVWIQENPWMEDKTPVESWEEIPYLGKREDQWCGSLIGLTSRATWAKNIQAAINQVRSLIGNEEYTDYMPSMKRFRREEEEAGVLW
Sequence of Trypsin (P00761 whole entry): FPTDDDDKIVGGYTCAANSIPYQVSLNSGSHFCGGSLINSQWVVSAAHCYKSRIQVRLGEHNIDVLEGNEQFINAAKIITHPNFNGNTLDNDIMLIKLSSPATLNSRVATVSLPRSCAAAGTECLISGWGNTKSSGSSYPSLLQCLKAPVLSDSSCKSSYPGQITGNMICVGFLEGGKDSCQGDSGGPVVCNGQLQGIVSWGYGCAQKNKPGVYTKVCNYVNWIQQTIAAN
Sequence of CAAX prenyl protease 2 (Q9Y256 whole entry): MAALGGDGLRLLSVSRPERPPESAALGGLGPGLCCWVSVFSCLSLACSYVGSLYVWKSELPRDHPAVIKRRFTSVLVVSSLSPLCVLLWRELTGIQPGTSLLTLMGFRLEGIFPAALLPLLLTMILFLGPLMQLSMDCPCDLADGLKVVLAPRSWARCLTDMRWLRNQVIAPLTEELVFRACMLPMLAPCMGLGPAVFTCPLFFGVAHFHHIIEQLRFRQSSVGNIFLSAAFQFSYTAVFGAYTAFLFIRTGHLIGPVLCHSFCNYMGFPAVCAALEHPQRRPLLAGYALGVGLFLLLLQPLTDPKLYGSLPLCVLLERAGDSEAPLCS

With `COC(=O)c1ccc(Cl)cc1NC(=O)/C=C/c1ccc(C)o1`, the AC50 with Escherichia coli was 83 µM (active).
Turning to `CC(=O)NN1C(=O)c2ccccc2NC1c1ccoc1` (configuration not stated), the AC50 at Trypsin was 32.4 µM (active); on CAAX prenyl protease 2 it was > 100 µM (inactive).
Take `Cc1ccc2nc(C)cc(Nc3ccc([N+](=O)[O-])cc3)c2c1`: the IC50 in experiment [1] was 1.29 µM (active). In addition, the AC50 in [2] was 5.88 µM (active); in the experiment with A-375 it was 24.7 µM (active); at Paired box protein Pax-8, 5.33 µM (active).
As to `O=C1C(Br)=C(N2CCN(CCOCCO)CC2)C(=O)c2c(O)ccc(O)c21`, the values for the CC50 (in the experiment with Vero; in experiment [5]) were 8.58 µM (active) and 12.6 µM (active), respectively. The IC50 on Beta-arrestin-1 is 7.46 µM (active); at Genome polyprotein it was 5.11 µM (active); in experiment [3], > 66 µM (inactive); in [4] it was 38.7 µM (inactive); at Protein skinhead-1, 79.6 µM (inactive); in experiment [6] it was 34.8 µM (active). The AC50 at Paired box protein Pax-8 is 7.03 µM (active); on Caspase-6, 0.343 µM (active); in [7], 7.21 µM (active).
As to `CCS(=O)(=O)N1Cc2ccccc2CC1C(=O)Nc1nc2ccccc2s1` (configuration not stated), the AC50 in experiment [8] is 15.2 µM (active); in experiment [9] it was 4.13 µM (active); in [10], 4.56 µM (active).
Consider `C=CCN1CC[C@]23c4c5ccc(O)c4O[C@@H]2/C(=N/N=C2\CC[C@@]4(O)C6Cc7ccc(O)c8c7[C@@]4(CCN6CC=C)[C@@H]2O8)CC[C@@]3(O)C1C5`, for which the AC50 in experiment [11] is 20 µM (inconclusive).
